Results from patent US20150366943A1, “MOBILIZATION OF HEMATOPOIETIC STEM CELLS FROM BONE MARROW TO BLOOD USING A COMBINATION OF A ROBO4 RECEPTOR ANTAGONIST AND A CXCR4 ANTAGONIST OR hrVEGF-165 AND A CXCR4 ANTAGONIST” (The Regents of the University of California, priority 2012, published 2015).

B1: Slit2: the Robo ligand Slit2, a large secreted protein (protein, UniProt O94813 31-1529, looked up)
Slit homolog 2 protein: QCSCSGSTVDCHGLALRSVPRNIPRNTERLDLNGNNITRITKTDFAGLRHLRVLQLMENKISTIERGAFQDLKELERLRLNRNHLQLFPELLFLGTAKLYRLDLSENQIQAIPRKAFRGAVDIKNLQLDYNQISCIEDGAFRALRDLEVLTLNNNNITRLSVASFNHMPKLRTFRLHSNNLYCDCHLAWLSDWLRQRPRVGLYTQCMGPSHLRGHNVAEVQKREFVCSGHQSFMAPSCSVLHCPAACTCSNNIVDCRGKGLTEIPTNLPETITEIRLEQNTIKVIPPGAFSPYKKLRRIDLSNNQISELAPDAFQGLRSLNSLVLYGNKITELPKSLFEGLFSLQLLLLNANKINCLRVDAFQDLHNLNLLSLYDNKLQTIAKGTFSPLRAIQTMHLAQNPFICDCHLKWLADYLHTNPIETSGARCTSPRRLANKRIGQIKSKKFRCSAKEQYFIPGTEDYRSKLSGDCFADLACPEKCRCEGTTVDCSNQKLNKIPEHIPQYTAELRLNNNEFTVLEATGIFKKLPQLRKINFSNNKITDIEEGAFEGASGVNEILLTSNRLENVQHKMFKGLESLKTLMLRSNRITCVGNDSFIGLSSVRLLSLYDNQITTVAPGAFDTLHSLSTLNLLANPFNCNCYLAWLGEWLRKKRIVTGNPRCQKPYFLKEIPIQDVAIQDFTCDDGNDDNSCSPLSRCPTECTCLDTVVRCSNKGLKVLPKGIPRDVTELYLDGNQFTLVPKELSNYKHLTLIDLSNNRISTLSNQSFSNMTQLLTLILSYNRLRCIPPRTFDGLKSLRLLSLHGNDISVVPEGAFNDLSALSHLAIGANPLYCDCNMQWLSDWVKSEYKEPGIARCAGPGEMADKLLLTTPSKKFTCQGPVDVNILAKCNPCLSNPCKNDGTCNSDPVDFYRCTCPYGFKGQDCDVPIHACISNPCKHGGTCHLKEGEEDGFWCICADGFEGENCEVNVDDCEDNDCENNSTCVDGINNYTCLCPPEYTGELCEEKLDFCAQDLNPCQHDSKCILTPKGFKCDCTPGYVGEHCDIDFDDCQDNKCKNGAHCTDAVNGYTCICPEGYSGLFCEFSPPMVLPRTSPCDNFDCQNGAQCIVRINEPICQCLPGYQGEKCEKLVSVNFINKESYLQIPSAKVRPQTNITLQIATDEDSGILLYKGDKDHIAVELYRGRVRASYDTGSHPASAIYSVETINDGNFHIVELLALDQSLSLSVDGGNPKIITNLSKQSTLNFDSPLYVGGMPGKSNVASLRQAPGQNGTSFHGCIRNLYINSELQDFQKVPMQTGILPGCEPCHKKVCAHGTCQPSSQAGFTCECQEGWMGPLCDQRTNDPCLGNKCVHGTCLPINAFSYSCKCLEGHGGVLCDEEEDLFNPCQAIKCKHGKCRLSGLGQPYCECSSGYTGDSCDREISCRGERIRDYYQKQQGYAACQTTKKVSRLECRGGCAGGQCCGPLRSKRRKYSFECTDGSSFVDEVEKVVKCGCTRCVS

Key:
[1] = test system: hematopoietic stem cells (HSC) and progenitors in peripheral blood
Protocol: Briefly, mice were injected IP with 200 mg/kg of Cytoxan in HBSS (Sigma-Aldrich) on day −1, followed by 2 or 4 sequential daily sub-cutaneous injections of […] rhG-CSF (Humanzyme, Chicago, Ill.). Tissues were analyzed on day 2 or 4, as indicated (FIGS. 3A, 4A). A cohort from each group was injected IV with 5 mg/kg of AMD3100 1 hour prior to sacrifice. For AMD3100 alone, mice were treated with two serial AMD3100 (5 mg/kg) IV injections one hour apart. Peripheral blood, spleen, and bone marrow were isolated one hour later and processed for cell counts and flow cytometry analysis to determine the numbers and frequencies of each cell population.

[2] = test system: BM cell (HSC, T cell) migration toward Sdf1; experiment: Modified Boyden (transwell) migration assay; assay type: cell-based, mice
Protocol: BM cells (lineage depleted by magnetic selection, when appropriate), were preincubated at 37° C. for one hour, then placed in the upper chamber of a transwell insert (5 μm pore size). Bottom and/or top wells contained Sdf1 (100 ng/ml) and/or Slit2, as indicated. Cells were allowed to migrate for 2 hrs at 37° C. before harvesting and analysis by flow cytometry.

[3] = test system: HSC localization to the BM; conditions: three hours post-injection
Protocol: BM cells were labeled with CFSE labeling dye (Invitrogen) for 5 minutes at ambient temperature, followed by antibody labeling and isolation of cKit^+/Lin^−/Sca1^+/CFSE^hi cells by two rounds of FACS. Sorted cells were split in two equal parts and incubated with or without AMD3100 ([…]) on ice for 30 minutes. Cells were washed, pelleted by centrifugation, and resuspended in HBSS at 400,000 cells/ml. Hosts, lethally irradiated 24 hours prior to transplantation, were injected IV with 40,000 cells in 100 μI. Three hours post-transplant, tissues were harvested from individual mice and analyzed for CFSE labeled cells by flow cytometry. Total cell numbers were counted using a Beckman Coulter Cell Counter.

[4] = test system: hematopoietic stem cells (HSC) and progenitors in peripheral blood; conditions: previous reports (Bonig 2009; Broxmeyer 2005); cited from earlier work
HL60 cells = experiment: HL60 cell migration toward fMLP; assay type: cell-based; conditions: Slit2, FIG. 11C
Protocol: (A) Purified Sdf1 (100 ng/ml) with and without Slit2 (250 or 500 ng/ml) was placed in bottom wells and the migration of lineage-depleted BM cells after a 2-hour incubation period were quantitated by flow cytometry. […] (B) Slit2 had no effect on T cell migration by itself (black bars) or in combination with Sdf1 (purple bars) in vitro. Experiment performed as in A, except unfractionated BM cells were placed in top wells. (C) Slit2 attenuated HL60 cell migration toward fMLP. Data shown are representative of at least two (C) or three (A and B) independent experiments. Error bars represent SEM. *p<0.03.

wt HSC = experiment: In vitro proliferation of HSC; assay type: cell-based, mice; conditions: Slit2 4 ug/ml, FIG. 9E
Protocol: HSC and MPP were isolated and sorted from Robo4^−/− and wt mice as previously described. 90-200 cells were plated per well of either strain into a 96-well U-bottom tissue culture plate and cultured for up to 10 days in IMEM medium (Fisher) supplemented with 10% FBS, 25 ng/ml of IL-11, 25 ng/ml of GM-CSF, 25 ng/ml of SCF, 10 ng/ml IL-3 (Cytokines from Peprotech) and Primocin (Invivogen). On days 3, 5, 7, and 10 FITC-labeled spherobeads (BD Bioscience) were added and triplicate samples were analyzed using a FACSAria. Cell expansion rates were calculated based on the number of beads recovered per 10,000 beads added per well.

Molecule	efficiency of AMD3100-induced HSC mobilization in Robo4−/− mice compared to wt mice ([1]; FIG. 4E)	progenitor cell numbers in the blood ([1]; one hour after two sequential AMD3100 injections, wt mice)	circulating HSC ([1]; one hour after two sequential AMD3100 injections, wt mice, FIG. 4D)	increase in PB HSC ([1]; wt mice, AMD3100 mobilization, FIG. 4D)	cell migration toward Sdf1 after preincubation with AMD3100 ([2]; increasing amounts of AMD3100, FIG. 6A)	concentration giving complete inhibition of HSC migration toward Sdf1 ([2]; preincubation with AMD3100, FIG. 6A)	reduction in donor cells localizing to the BM ([3]; AMD3100 preincubation of wt cells, FIG. 6B)	BM localization of Robo4-deficient cells treated with AMD3100 ([3]; FIG. 6B)	donor cells in the blood stream ([3]; FIG. 6C)	localization to the spleen ([3]; FIG. 6D)	HSC numbers increase (long-term reconstitution capability of PB cells upon AMD3100 mobilization) [4]	HL60 cell migration toward fMLP (HL60 cells)	migration of CD4+T cells toward Sdf1 ([2]; Slit2, FIG. 11B)	HSC migration toward Slit2 ([2]; data not shown)	cell migration toward Sdf1 with Slit2 added ([2]; lineage-depleted BM cells, Sdf1 100 ng/ml, Slit2 250 or 500 ng/ml, 2-hour incubation, FIG. 11A)	in vitro proliferation rates of wt HSC (wt HSC)
c1cc(CN2CCCNCCNCCCNCC2)ccc1CN1CCCNCCNCCCNCC1 [AMD3100]	much greater	increased robustly	surprisingly few	~1.5 fold	dose-dependent decrease	25 µM	~2 fold	further decrease in BM localization	reciprocal increase	no differences	1.5-8 fold	–	–	–	–	–
B1	–	–	–	–	–	–	–	–	–	–	–	inhibition	not affected	did not detect	No significant differences	did not affect
